Values after ≈ are worked out from the molar mass of the structure shown.
How the values were obtained:
[1] = Aqueous solubility of compound in sodium phosphate buffer containing 1% DMSO at pH 6.8; format: physicochemical
[2] = biological target: T1, Transient receptor potential cation channel subfamily V member 4 (Homo sapiens, UniProt Q9HBA0); experiment: Antagonist activity at human recombinant TRPV4 expressed in CHO-K1 cells assessed as blockade of 1000 nM 4alphaPDD-induced calcium mobilization by FLIPR assay; format: cell-based
[3] = Stability in human liver microsomes assessed as compound remaining after 30 mins in presence or absence of NADPH generating system at 37 degC; format: ADME, microsome; conditions: read-out: Stability
[4] = Antagonist activity at guinea pig recombinant TRPV4 expressed in CHO-K1 cells assessed as blockade of 250 nM 4alphaPDD-induced calcium mobilization by FLIPR assay; format: cell-based; conditions: Cavia porcellus
[5] = biological target: T1, Transient receptor potential cation channel subfamily V member 4; experiment: Antagonist activity at human recombinant TRPV4 expressed in CHO-K1 cells assessed as blockade of hypotonic solution-induced calcium mobilization by FLIPR assay; format: cell-based
[6] = test system: Cavia porcellus; experiment: Analgesic activity in FCA-induced guinea pig mechanical hyperalgesia model assessed as reversal of mechanical hyperalgesia at 30 mg/kg, po after 1 hr (reference value: 1.6 +/- 3.4%); format: functional
[7] = test system: Salmonella typhimurium; experiment: Genotoxicity in Salmonella typhimurium by Ames test; format: toxicity, organism-based; conditions: salmonella enterica subsp. enterica serovar typhimurium
[8] = biological target: Voltage-gated inwardly rectifying potassium channel KCNH2 (Homo sapiens, UniProt Q12809); experiment: Inhibition of human ERG
[9] = biological target: Cytochrome P450 3A4 (Homo sapiens, UniProt P08684); experiment: Inhibition of CYP3A4 (unknown origin); format: ADME
[10] = biological target: Cytochrome P450 2C19 (Homo sapiens, UniProt P33261); experiment: Inhibition of CYP2C19 (unknown origin); format: ADME
[11] = biological target: Cytochrome P450 2C9 (Homo sapiens, UniProt P11712); experiment: Inhibition of CYP2C9 (unknown origin); format: ADME
[12] = Plasma concentration in FCA-induced guinea pig mechanical hyperalgesia model at 30 mg/kg, po after 1 hr; format: ADME, organism-based, Cavia porcellus
[13] = Tmax in guinea pig at 1 mg/kg, po; format: ADME, organism-based, Cavia porcellus; conditions: in vivo
[14] = biological target: T2, Cytochrome P450 1A2 (Homo sapiens, UniProt P05177); experiment: Inhibition of CYP1A2 (unknown origin); format: ADME
T2 sequence (P05177 whole entry): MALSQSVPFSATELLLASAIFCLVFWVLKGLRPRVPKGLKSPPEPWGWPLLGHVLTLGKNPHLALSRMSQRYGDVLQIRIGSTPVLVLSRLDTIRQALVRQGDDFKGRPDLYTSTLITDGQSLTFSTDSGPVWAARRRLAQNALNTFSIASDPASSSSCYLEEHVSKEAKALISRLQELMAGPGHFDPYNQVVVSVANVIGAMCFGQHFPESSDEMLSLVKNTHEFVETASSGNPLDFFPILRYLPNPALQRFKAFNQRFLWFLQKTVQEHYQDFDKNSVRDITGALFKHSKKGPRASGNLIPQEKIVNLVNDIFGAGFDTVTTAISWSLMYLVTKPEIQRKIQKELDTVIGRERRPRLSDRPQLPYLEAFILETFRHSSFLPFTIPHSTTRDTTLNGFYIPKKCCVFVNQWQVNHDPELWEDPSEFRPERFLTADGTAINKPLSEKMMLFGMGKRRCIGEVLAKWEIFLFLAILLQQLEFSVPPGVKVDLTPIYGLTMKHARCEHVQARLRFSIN

[15] = Half life in guinea pig at 0.5 mg/kg, iv; format: ADME, organism-based, Cavia porcellus; conditions: in vivo
[16] = Oral bioavailability in guinea pig at 1 mg/kg; format: ADME, organism-based, Cavia porcellus; conditions: in vivo
[17] = biological target: Cytochrome P450 2D6 (Homo sapiens, UniProt P10635); experiment: Inhibition of CYP2D6 (unknown origin); format: ADME
[18] = biological target: Transient receptor potential cation channel subfamily V member 1 (Homo sapiens, UniProt Q8NER1); experiment: Antagonist activity at human TRPV1 expressed in CHO cells assessed as blockade of 100 nM capsaicin-induced calcium mobilization by FLIPR assay; format: cell-based
[19] = Volume of distribution at steady state in guinea pig at 0.5 mg/kg, iv; format: ADME, organism-based, Cavia porcellus; conditions: in vivo, read-out: Vdss
[20] = Plasma concentration in FCA-induced guinea pig mechanical hyperalgesia model at 10 mg/kg, po after 1 hr; format: ADME, organism-based, Cavia porcellus
[21] = Stability in guinea pig liver microsomes assessed as compound remaining after 30 mins in presence or absence of NADPH generating system at 37 degC; format: ADME, Cavia porcellus, microsome; conditions: read-out: Stability
[22] = AUC in guinea pig at 1 mg/kg, po; format: ADME, organism-based, Cavia porcellus; conditions: in vivo
[23] = test system: CHO-K1; experiment: Selectivity ratio of IC50 for guinea pig recombinant TRPV4 expressed in CHO-K1 cells to IC50 for human recombinant TRPV4 expressed in CHO-K1 cells; format: cell-based
[24] = test system: Cavia porcellus; experiment: Analgesic activity in FCA-induced guinea pig mechanical hyperalgesia model assessed as reversal of mechanical hyperalgesia at 10 mg/kg, po after 1 hr (reference value: 1.6 +/- 3.4%); format: functional
[25] = Cmax in guinea pig at 1 mg/kg, po; format: ADME, organism-based, Cavia porcellus; design: dose 1 mg/kg, route oral; conditions: in vivo
[26] = Total clearance in guinea pig at 0.5 mg/kg, iv; format: ADME, organism-based, Cavia porcellus; conditions: in vivo
[27] = Protein binding in guinea pig plasma; format: ADME, cell-free, Cavia porcellus; conditions: read-out: PPB (converted)

T1 sequence (Q9HBA0 whole entry): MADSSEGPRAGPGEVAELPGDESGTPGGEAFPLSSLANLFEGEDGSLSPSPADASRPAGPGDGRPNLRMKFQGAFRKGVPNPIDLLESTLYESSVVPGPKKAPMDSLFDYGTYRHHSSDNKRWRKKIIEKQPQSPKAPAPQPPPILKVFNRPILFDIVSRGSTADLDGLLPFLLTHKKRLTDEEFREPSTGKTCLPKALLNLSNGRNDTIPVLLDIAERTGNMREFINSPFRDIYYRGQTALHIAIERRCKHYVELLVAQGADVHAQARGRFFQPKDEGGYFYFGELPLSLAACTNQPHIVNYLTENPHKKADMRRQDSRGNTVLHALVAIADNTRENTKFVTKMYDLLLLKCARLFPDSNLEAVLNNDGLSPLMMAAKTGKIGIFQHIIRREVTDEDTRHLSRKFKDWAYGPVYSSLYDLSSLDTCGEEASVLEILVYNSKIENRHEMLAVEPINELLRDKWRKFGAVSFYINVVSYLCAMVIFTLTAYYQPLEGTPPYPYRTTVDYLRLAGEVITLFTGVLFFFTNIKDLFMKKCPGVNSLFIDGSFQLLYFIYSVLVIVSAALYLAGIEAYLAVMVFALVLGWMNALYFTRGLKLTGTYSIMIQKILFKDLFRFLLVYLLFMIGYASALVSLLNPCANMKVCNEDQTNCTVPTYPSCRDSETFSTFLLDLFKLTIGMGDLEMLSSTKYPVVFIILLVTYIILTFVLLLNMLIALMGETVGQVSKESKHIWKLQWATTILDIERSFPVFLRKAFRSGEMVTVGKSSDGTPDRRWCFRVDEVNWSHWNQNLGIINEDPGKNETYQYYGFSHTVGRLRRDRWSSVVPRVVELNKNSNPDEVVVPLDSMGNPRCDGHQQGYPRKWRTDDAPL
Sequence of Voltage-gated inwardly rectifying potassium channel KCNH2 (Q12809 whole entry): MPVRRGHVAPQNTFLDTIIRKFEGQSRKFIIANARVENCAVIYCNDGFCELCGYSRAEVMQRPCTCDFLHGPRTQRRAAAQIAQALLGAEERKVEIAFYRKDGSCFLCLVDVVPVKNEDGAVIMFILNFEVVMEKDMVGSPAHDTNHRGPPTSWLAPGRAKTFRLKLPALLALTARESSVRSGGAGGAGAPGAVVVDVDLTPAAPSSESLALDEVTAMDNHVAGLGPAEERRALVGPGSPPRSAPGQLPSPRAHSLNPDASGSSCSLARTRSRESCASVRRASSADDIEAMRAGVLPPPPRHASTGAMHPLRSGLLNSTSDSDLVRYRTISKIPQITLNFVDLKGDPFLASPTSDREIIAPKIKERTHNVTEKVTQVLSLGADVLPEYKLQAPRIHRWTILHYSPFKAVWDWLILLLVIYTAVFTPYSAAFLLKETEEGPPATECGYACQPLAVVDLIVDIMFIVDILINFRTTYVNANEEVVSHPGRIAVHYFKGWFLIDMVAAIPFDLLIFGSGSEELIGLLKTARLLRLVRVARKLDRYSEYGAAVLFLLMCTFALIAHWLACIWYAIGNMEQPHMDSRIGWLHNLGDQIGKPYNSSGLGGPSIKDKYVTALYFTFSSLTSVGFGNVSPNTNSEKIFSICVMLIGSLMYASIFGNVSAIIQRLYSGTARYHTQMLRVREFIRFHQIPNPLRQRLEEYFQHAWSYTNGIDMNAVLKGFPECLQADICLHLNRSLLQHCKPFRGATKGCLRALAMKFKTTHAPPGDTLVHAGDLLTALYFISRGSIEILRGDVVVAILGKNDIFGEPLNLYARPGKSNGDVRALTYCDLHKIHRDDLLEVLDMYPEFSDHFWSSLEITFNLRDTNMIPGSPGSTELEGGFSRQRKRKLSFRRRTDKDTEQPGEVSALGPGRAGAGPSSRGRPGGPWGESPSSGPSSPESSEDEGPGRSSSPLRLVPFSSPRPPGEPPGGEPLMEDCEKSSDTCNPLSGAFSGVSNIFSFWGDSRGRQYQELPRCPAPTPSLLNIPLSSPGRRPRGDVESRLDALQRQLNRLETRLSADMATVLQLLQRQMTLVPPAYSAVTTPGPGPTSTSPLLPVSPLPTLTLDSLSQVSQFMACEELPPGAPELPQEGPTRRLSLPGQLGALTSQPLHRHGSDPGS
Sequence of Cytochrome P450 3A4 (P08684 whole entry): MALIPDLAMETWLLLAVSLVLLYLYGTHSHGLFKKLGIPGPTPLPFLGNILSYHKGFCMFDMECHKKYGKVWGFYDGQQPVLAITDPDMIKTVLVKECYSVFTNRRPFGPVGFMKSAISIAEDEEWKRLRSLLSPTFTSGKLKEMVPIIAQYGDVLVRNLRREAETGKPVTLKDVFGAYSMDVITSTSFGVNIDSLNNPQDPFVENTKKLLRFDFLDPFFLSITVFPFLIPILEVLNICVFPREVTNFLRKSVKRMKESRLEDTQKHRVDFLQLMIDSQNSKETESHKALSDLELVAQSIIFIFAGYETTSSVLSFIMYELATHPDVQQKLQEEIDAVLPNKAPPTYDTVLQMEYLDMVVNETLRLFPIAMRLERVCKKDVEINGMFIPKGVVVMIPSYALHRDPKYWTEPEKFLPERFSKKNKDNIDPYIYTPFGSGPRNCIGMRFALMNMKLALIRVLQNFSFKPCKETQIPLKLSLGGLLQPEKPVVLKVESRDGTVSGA
Sequence of Transient receptor potential cation channel subfamily V member 1 (Q8NER1 whole entry): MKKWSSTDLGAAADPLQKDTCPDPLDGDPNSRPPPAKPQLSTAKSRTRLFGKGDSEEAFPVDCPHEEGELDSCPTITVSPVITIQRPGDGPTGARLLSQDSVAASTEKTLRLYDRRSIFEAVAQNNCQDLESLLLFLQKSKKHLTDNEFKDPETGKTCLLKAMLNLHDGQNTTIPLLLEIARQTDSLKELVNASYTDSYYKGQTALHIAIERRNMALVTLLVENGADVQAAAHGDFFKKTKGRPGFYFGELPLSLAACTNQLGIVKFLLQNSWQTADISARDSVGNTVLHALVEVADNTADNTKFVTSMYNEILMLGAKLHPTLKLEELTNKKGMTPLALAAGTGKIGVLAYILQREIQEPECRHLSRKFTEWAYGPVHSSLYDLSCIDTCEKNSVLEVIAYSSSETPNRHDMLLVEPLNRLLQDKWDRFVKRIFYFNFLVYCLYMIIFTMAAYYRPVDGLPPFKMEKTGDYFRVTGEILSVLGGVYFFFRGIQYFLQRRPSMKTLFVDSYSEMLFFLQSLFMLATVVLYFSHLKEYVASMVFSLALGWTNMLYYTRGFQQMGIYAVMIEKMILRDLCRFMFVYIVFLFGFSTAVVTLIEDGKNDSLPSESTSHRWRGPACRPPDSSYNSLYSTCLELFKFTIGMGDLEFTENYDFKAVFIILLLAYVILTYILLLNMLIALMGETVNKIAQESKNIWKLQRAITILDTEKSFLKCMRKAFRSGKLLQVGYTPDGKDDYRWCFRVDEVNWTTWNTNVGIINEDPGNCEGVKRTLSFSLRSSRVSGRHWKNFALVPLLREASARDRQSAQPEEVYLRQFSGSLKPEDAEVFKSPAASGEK
Sequence of Cytochrome P450 2C9 (P11712 whole entry): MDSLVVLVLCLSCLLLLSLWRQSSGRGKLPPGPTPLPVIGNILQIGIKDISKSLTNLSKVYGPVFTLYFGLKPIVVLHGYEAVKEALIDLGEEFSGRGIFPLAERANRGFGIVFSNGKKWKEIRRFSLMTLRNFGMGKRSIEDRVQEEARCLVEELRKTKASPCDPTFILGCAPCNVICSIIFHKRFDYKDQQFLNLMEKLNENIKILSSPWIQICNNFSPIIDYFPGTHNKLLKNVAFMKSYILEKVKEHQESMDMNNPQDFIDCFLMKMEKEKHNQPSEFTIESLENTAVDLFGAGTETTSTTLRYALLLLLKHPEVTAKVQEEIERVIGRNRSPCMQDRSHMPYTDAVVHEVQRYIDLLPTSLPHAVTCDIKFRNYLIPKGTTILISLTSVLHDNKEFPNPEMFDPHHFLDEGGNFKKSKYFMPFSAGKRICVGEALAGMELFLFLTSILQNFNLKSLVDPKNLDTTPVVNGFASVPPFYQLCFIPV
Sequence of Cytochrome P450 2D6 (P10635 whole entry): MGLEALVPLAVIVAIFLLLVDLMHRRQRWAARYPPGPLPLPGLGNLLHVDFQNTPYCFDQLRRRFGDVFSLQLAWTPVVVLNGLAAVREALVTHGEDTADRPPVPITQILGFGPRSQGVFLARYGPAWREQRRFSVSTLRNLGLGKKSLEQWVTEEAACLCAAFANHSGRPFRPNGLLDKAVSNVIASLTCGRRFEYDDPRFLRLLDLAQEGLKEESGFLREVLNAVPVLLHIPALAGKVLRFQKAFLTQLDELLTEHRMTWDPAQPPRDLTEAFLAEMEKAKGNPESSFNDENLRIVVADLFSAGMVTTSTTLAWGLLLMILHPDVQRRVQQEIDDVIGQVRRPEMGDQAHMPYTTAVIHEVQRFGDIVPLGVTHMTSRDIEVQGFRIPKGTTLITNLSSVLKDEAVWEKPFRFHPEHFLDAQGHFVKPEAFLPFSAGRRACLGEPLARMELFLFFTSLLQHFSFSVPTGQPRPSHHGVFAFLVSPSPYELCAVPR
Sequence of Cytochrome P450 2C19 (P33261 whole entry): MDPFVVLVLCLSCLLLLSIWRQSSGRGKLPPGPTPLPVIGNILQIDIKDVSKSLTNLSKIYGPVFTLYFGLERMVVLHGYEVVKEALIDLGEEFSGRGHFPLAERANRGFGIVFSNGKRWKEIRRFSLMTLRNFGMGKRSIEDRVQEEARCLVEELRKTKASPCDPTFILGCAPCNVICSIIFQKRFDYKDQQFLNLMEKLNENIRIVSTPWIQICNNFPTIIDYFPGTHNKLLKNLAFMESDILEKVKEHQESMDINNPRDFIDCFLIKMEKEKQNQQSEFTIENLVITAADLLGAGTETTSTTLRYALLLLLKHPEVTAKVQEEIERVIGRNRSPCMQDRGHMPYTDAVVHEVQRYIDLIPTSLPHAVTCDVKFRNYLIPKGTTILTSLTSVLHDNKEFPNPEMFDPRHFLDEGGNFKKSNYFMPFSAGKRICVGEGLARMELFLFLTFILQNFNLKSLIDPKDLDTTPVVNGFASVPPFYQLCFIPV

## Cc1nc(C)c(-c2csc(Nc3ccc(NC(=O)c4ccc(Cl)cc4)cn3)n2)s1
[1]
  solubility: 3.9 µM (≈ 1.72 µg/mL)
[2]
  IC50: > 10000 nM
[3]
  remaining at 0.5 h: 65.2%

## Cc1nc(C)c(-c2csc(Nc3ccc(C(=O)N4C(C)CCCC4C)cn3)n2)s1 (centres undefined)
[1]
  solubility: < 0.1 µM
[2]
  IC50: 6.3 nM
[3]
  remaining at 0.5 h: 2.1%

## Cc1nc(C)c(-c2csc(Nc3ccc(C(=O)NCc4ccc(Cl)cc4)cn3)n2)s1
[1]
  solubility: 2.5 µM (≈ 1.14 µg/mL)
[2]
  IC50: 200 nM
[3]
  remaining at 0.5 h: 50.8%

## Cc1nc(C)c(-c2csc(Nc3ncccn3)n2)s1
[2]
  IC50: 10000 nM
[3]
  remaining at 0.5 h: 0.3%

## Cc1nc(C)c(-c2csc(Nc3ccc(C(=O)Nc4ccc(Cl)cc4)cn3)n2)s1
[1]
  solubility: 10.6 µM (≈ 4.68 µg/mL)
[2]
  IC50: 9.5 nM
[3]
  remaining at 0.5 h: 54.6%

## Cc1nc(C)c(-c2csc(Nc3ccc(C(=O)O)cn3)n2)s1
[1]
  solubility: > 50 µM
[2]
  IC50: > 10000 nM
[3]
  remaining at 0.5 h: 100%

## Cc1nc(C)c(-c2csc(Nc3ccc(NS(=O)(=O)c4ccc(Cl)cc4)cn3)n2)s1
[1]
  solubility: 1.2 µM (≈ 0.574 µg/mL)
[2]
  IC50: 240 nM
[3]
  remaining at 0.5 h: 81.5%

## COc1ccnc(Nc2nc(-c3sc(C)nc3C)cs2)c1
[2]
  IC50: 410 nM
[3]
  remaining at 0.5 h: 0.7%

## COc1ccc(Nc2nc(-c3sc(C)nc3C)cs2)nc1
[2]
  IC50: 35 nM
[3]
  remaining at 0.5 h: 10%

## Cc1nc(C)c(-c2csc(Nc3cc(C#N)ccn3)n2)s1
[2]
  IC50: 240 nM
[3]
  remaining at 0.5 h: 2.8%

## Cc1nc(C)c(-c2csc(Nc3ccc(C(=O)N4C(C)CC(=O)CC4C)cn3)n2)s1 (centres undefined)
[1]
  solubility: 45 µM (≈ 19.9 µg/mL)
[2]
  IC50: 46 nM
[3]
  remaining at 0.5 h: 52.8%

## Cc1nc(C)c(-c2csc(Nc3ccc(S(=O)(=O)Nc4ccc(Cl)cc4)cn3)n2)s1
[1]
  solubility: 4.5 µM (≈ 2.15 µg/mL)
[2]
  IC50: 290 nM
[3]
  remaining at 0.5 h: 83.4%

## Cc1nc(C)c(-c2csc(Nc3cccnc3)n2)s1
[2]
  IC50: 490 nM
[3]
  remaining at 0.5 h: 39.5%

## Cc1nc(C)c(-c2csc(Nc3ccc(Br)cc3)n2)s1
[2]
  IC50: 34 nM
[3]
  remaining at 0.5 h: 86.4%

## Cc1nc(C)c(-c2csc(Nc3ncccc3C#N)n2)s1
[2]
  IC50: 4300 nM
[3]
  remaining at 0.5 h: 1.3%

## COc1cccnc1Nc1nc(-c2sc(C)nc2C)cs1
[2]
  IC50: > 10000 nM
[3]
  remaining at 0.5 h: 30.9%

## COc1cccc(Nc2nc(-c3sc(C)nc3C)cs2)n1
[2]
  IC50: 23 nM
[3]
  remaining at 0.5 h: 40%

## Cc1nc(C)c(-c2csc(Nc3ccc(C(=O)N4CCC(=O)CC4)cn3)n2)s1
[1]
  solubility: > 50 µM
[2]
  IC50: 620 nM
[3]
  remaining at 0.5 h: 1.4%

## Cc1nc(C)c(-c2csc(Nc3ccc(C(=O)N(C)c4ccc(Cl)cc4)cn3)n2)s1
[1]
  solubility: 1.4 µM (≈ 0.638 µg/mL)
[2]
  IC50: 50 nM
[3]
  remaining at 0.5 h: 53.6%

## Cc1nc(C)c(-c2csc(Nc3ccc(C(=O)N4C5CCC4CC(=O)C5)cn3)n2)s1
[1]
  solubility: 46.4 µM (≈ 20.4 µg/mL)
[3]
  remaining at 0.5 h: 81%

## Cc1nc(C)c(-c2csc(Nc3ccc(C(=O)N4CCCCC4)cn3)n2)s1
[1]
  solubility: 0.8 µM (≈ 0.32 µg/mL)
[2]
  IC50: 37 nM
[3]
  remaining at 0.5 h: 74.5%

## Cc1nc(C)c(-c2csc(Nc3ccccn3)n2)s1
[2]
  IC50: 10 nM
[3]
  remaining at 0.5 h: 1.1%

## Cc1nc(C)c(-c2csc(Nc3ccccc3)n2)s1
[2]
  IC50: 31 nM
[3]
  remaining at 0.5 h: 22.8%

## Cc1nc(C)c(-c2csc(Nc3ccncc3)n2)s1
[2]
  IC50: 3300 nM
[3]
  remaining at 0.5 h: 17.8%

## CCNC(=O)c1ccc(Nc2nc(-c3sc(C)nc3C)cs2)nc1
[1]
  solubility: 2.8 µM (≈ 1.01 µg/mL)
[2]
  IC50: > 10000 nM
[3]
  remaining at 0.5 h: 81.4%

## Cc1nc(C)c(-c2csc(Nc3ccc(C#N)cn3)n2)s1
[1]
  solubility: 1.7 µM (≈ 0.533 µg/mL)
[2]
  IC50: 22 nM
[3]
  remaining at 0.5 h: 65%

## Cc1nc(C)c(-c2csc(Nc3ccc(C(=O)N4C5COCC4CC(=O)C5)cn3)n2)s1
[4]
  IC50: 27 nM
[5]
  IC50: 3.1 nM
[6]
  Activity: 45.6%
[1]
  solubility: > 50 µM
[7]
  Activity: Non-Toxic
[8]
  IC50: > 30000 nM
[9]
  INH: > 20 µM
[10]
  INH: > 20 µM
[3]
  remaining at 0.5 h: 100%
[11]
  INH: > 20 µM
[12]
  concentration at 1 h: 1940 ng/mL
[13]
  Tmax: 30 min
[14]
  INH: > 20 µM
[15]
  half-life: 66 min
[16]
  bioavailability: 38.6%
[17]
  INH: > 20 µM
[18]
  IC50: > 10000 nM
[19]
  Vd: 2.5 L/kg
[20]
  concentration at 1 h: 515 ng/mL
[21]
  remaining at 0.5 h: 84%
[22]
  AUC: 200 ng·h/mL
[23]
  Ratio IC50: 1.4
[24]
  Activity: 30.8%
[25]
  Cmax: 59.2 ng/mL
[26]
  clearance: 37.1 mL/min/kg
[27]
  fraction unbound: 0.1

## Cc1nc(C)c(-c2csc(Nc3cccc(C#N)n3)n2)s1
[2]
  IC50: 100 nM
[3]
  remaining at 0.5 h: 66.4%

## Cc1nc(C)c(-c2csc(Nc3ccc(C(=O)NC4CCCCC4)cn3)n2)s1
[1]
  solubility: 1.8 µM (≈ 0.744 µg/mL)
[2]
  IC50: 29 nM
[3]
  remaining at 0.5 h: 55%

## CCOC(=O)c1ccc(Nc2nc(-c3sc(C)nc3C)cs2)nc1
[1]
  solubility: 3.4 µM (≈ 1.23 µg/mL)
[2]
  IC50: 11 nM
[3]
  remaining at 0.5 h: 13.5%
